From patent US20170015555A1, “LONG-TERM PRESERVATION AND NOVEL APPLICATION OF CHLOROUS ACID AQUEOUS SOLUTION FORMULATION” (priority 2013, published 2017)

Columns and labels:
Assay type in all cases: cell-based
[1] = test system: Microbes of the genus Salmonella: Salmonella Enteritidis IF03313; assay: Sterilizing effect on floor surface after wiping off imitation vomit, tatami mattress; settings: 1000 ppm available chlorine
Excerpt: (§1) 1) Chlorous acid aqueous solution formulation (see Example 1: Table 11) Treatment sheet (material: 100% cotton): (about 27×40 cm) *Impregnated at a ratio of weight of treatment sheet (g): amount of liquid (ml)=1:3 2) Imitation vomit Miso solution: adjusted to pH of 2 with hydrochloric acid 3) Test Microbes that were Used E. coli: Escherichia coli IF03927 Staphylococcus aureus: Staphylococcus aureus IF0 12732 Thermoduric Microbes (Bacillus cereus): Bacillus cereus NBRC15305 Microbes of the genus Salmonella: Salmonella Enteritidis IF03313 Enterohemorrhagic Escherichia coli O157: Escherichia coli O157 Enterohemorrhagic Escherichia coli O111: Escherichia coli O111 Enterohemorrhagic Escherichia coli O26: Escherichia coli O26
(§2) (1) Imitation vomit was spread in an area about the size of an A4 sheet. (2) 5 dry sheets were laid thereon. (3) An agent solution was poured on the dry sheets to wipe off the imitation vomit. (4) A cotton swab was soaked with sterile saline. A portion where imitation vomit was spread was scrubbed with the cotton swab to collect microbes remaining on the floor. After suspending in saline, the solution was spread on a petri dish and cultured. The number of each of the microbes was measured. (5) Test operations 3 and 4 were repeated a total of 7 times (repeated until the imitation vomit could be removed completely).

[2] = test system: Enterohemorrhagic Escherichia coli O26; assay: as above; settings: 1000 ppm available chlorine
Excerpt: as §1, §2

[3] = test system: Bacillus cereus NBRC15305; assay: as above; settings: 1000 ppm available chlorine
Excerpt: as §1, §2

[4] = test system: Enterohemorrhagic Escherichia coli O157; assay: Permeability of pathogenic microbes when treatment sheets were laid on vomit; settings: 1000 ppm available chlorine
Excerpt: (§3) 1) Chlorous acid aqueous solution formulation (see Example 1: Table 11) Treatment sheet (material: 100% cotton): (about 27×40 cm) *Impregnated at a ratio of weight of treatment sheet (g): amount of liquid (ml)=1:3 2) Imitation vomit (hereinafter, referred to as vomit) Miso solution: adjusted to pH 2 with hydrochloric acid 3) Test Microbes that were used E. coli: Escherichia coli IF03927 Staphylococcus aureus: Staphylococcus aureus IF0 12732 Thermoduric Microbes (Bacillus cereus): Bacillus cereus NBRC15305 Microbes of the genus Salmonella: Salmonella Enteritidis IF03313 Enterohemorrhagic Escherichia coli 0157: Escherichia coli 0157 Enterohemorrhagic Escherichia coli 0111: Escherichia coli 0111 Enterohemorrhagic Escherichia coli 026: Escherichia coli O26
(§4) Permeability of pathogenic microbes into a treatment sheet when treating vomit was examined to compare effects of preventing secondary contamination. (1) Imitation vomit is spread in an area about the size of an A4 sheet. (2) 30 agent solution-containing treatment sheets were laid thereon and left standing for 10 minutes. (3) Treatment sheets were removed one at a time from the top. After diluting with saline, the sample was spread in a petri dish and cultured.

[5] = test system: Enterohemorrhagic Escherichia coli O26; assay: as above; settings: 1000 ppm available chlorine
Excerpt: as §3, §4

[6] = test system: Salmonella Enteritidis IF03313; assay: as above; settings: 1000 ppm available chlorine
Excerpt: as §3, §4

[7] = test system: Enterohemorrhagic Escherichia coli O111; assay: as above; settings: 1000 ppm available chlorine
Excerpt: as §3, §4

[8] = test system: pathogenic microbes; assay: Preventing secondary contamination upon treating vomit, summary over all tested microbes
Excerpt: as §3, §4

OCl [Sodium Hypochlorite, sodium hypochlorite]
microbes remaining, wiped 1 Time ([1]; stored at 25° C. Day 0): <10
microbes remaining, wiped 2 Times ([1]; stored at 25° C. Day 0): <10
microbes remaining, wiped 3 Times ([1]; stored at 25° C. Day 0): <10
microbes remaining, wiped 1 Time ([1]; stored at 25° C. Day 7): 1.5 × 10^3
microbes remaining, wiped 2 Times ([1]; stored at 25° C. Day 7): 7.7 × 10^2
microbes remaining, wiped 3 Times ([1]; stored at 25° C. Day 7): 1.8 × 10^2
Number of Times Wiped 1 Time (remaining microbes) ([2]; stored at 25° C. Day 0): <10
Number of Times Wiped 2 Times (remaining microbes) ([2]; stored at 25° C. Day 0): <10
Number of Times Wiped 3 Times (remaining microbes) ([2]; stored at 25° C. Day 0): <10
Number of Times Wiped 1 Time (remaining microbes) ([2]; stored at 25° C. Day 7): 8.8 × 10^3
Number of Times Wiped 2 Times (remaining microbes) ([2]; stored at 25° C. Day 7): 4.9 × 10^3
Number of Times Wiped 3 Times (remaining microbes) ([2]; stored at 25° C. Day 7): 3.0 × 10^3
microbes remaining, wiped 1 Time ([3]; stored at 25° C. Day 0): <10
microbes remaining, wiped 2 Times ([3]; stored at 25° C. Day 0): <10
microbes remaining, wiped 3 Times ([3]; stored at 25° C. Day 0): <10
microbes remaining, wiped 1 Time ([3]; stored at 25° C. Day 7): <10
microbes remaining, wiped 2 Times ([3]; stored at 25° C. Day 7): <10
microbes remaining, wiped 3 Times ([3]; stored at 25° C. Day 7): <10
Microbe count, 1 sheet laid on imitation vomit ([4]; Day 0 at 25° C.): <10
Microbe count, 2 sheets laid on imitation vomit ([4]; Day 0 at 25° C.): <10
Microbe count, 3 sheets laid on imitation vomit ([4]; Day 0 at 25° C.): <10
Microbe count, 4 sheets laid on imitation vomit ([4]; Day 0 at 25° C.): <10
Microbe count, 5 sheets laid on imitation vomit ([4]; Day 0 at 25° C.): <10
Microbe count, 6 sheets laid on imitation vomit ([4]; Day 0 at 25° C.): <10
Microbe count, 8 sheets laid on imitation vomit ([4]; Day 0 at 25° C.): <10
Microbe count, 10 sheets laid on imitation vomit ([4]; Day 0 at 25° C.): <10
Microbe count, 20 sheets laid on imitation vomit ([4]; Day 0 at 25° C.): <10
Microbe count, 30 sheets laid on imitation vomit ([4]; Day 0 at 25° C.): <10
Microbe count, 1 sheet laid on imitation vomit ([4]; Day 7 at 25° C.): >10^6
Microbe count, 2 sheets laid on imitation vomit ([4]; Day 7 at 25° C.): >10^6
Microbe count, 3 sheets laid on imitation vomit ([4]; Day 7 at 25° C.): >10^6
Microbe count, 4 sheets laid on imitation vomit ([4]; Day 7 at 25° C.): >10^6
Microbe count, 5 sheets laid on imitation vomit ([4]; Day 7 at 25° C.): >10^6
Microbe count, 6 sheets laid on imitation vomit ([4]; Day 7 at 25° C.): >10^6
Microbe count, 8 sheets laid on imitation vomit ([4]; Day 7 at 25° C.): 1.1 × 10^4
Microbe count, 10 sheets laid on imitation vomit ([4]; Day 7 at 25° C.): 7.1 × 10^2
Microbe count, 20 sheets laid on imitation vomit ([4]; Day 7 at 25° C.): <10
Microbe count, 30 sheets laid on imitation vomit ([4]; Day 7 at 25° C.): <10
Microbe count, 1 sheet laid on imitation vomit ([5]; Day 0 at 25° C.): <10
Microbe count, 2 sheets laid on imitation vomit ([5]; Day 0 at 25° C.): <10
Microbe count, 3 sheets laid on imitation vomit ([5]; Day 0 at 25° C.): <10
Microbe count, 4 sheets laid on imitation vomit ([5]; Day 0 at 25° C.): <10
Microbe count, 5 sheets laid on imitation vomit ([5]; Day 0 at 25° C.): <10
Microbe count, 6 sheets laid on imitation vomit ([5]; Day 0 at 25° C.): <10
Microbe count, 8 sheets laid on imitation vomit ([5]; Day 0 at 25° C.): <10
Microbe count, 10 sheets laid on imitation vomit ([5]; Day 0 at 25° C.): <10
Microbe count, 20 sheets laid on imitation vomit ([5]; Day 0 at 25° C.): <10
Microbe count, 30 sheets laid on imitation vomit ([5]; Day 0 at 25° C.): <10
Microbe count, 1 sheet laid on imitation vomit ([5]; Day 7 at 25° C.): >10^6
Microbe count, 2 sheets laid on imitation vomit ([5]; Day 7 at 25° C.): >10^6
Microbe count, 3 sheets laid on imitation vomit ([5]; Day 7 at 25° C.): >10^6
Microbe count, 4 sheets laid on imitation vomit ([5]; Day 7 at 25° C.): >10^6
Microbe count, 5 sheets laid on imitation vomit ([5]; Day 7 at 25° C.): >10^6
Microbe count, 6 sheets laid on imitation vomit ([5]; Day 7 at 25° C.): >10^6
Microbe count, 8 sheets laid on imitation vomit ([5]; Day 7 at 25° C.): >10^6
Microbe count, 10 sheets laid on imitation vomit ([5]; Day 7 at 25° C.): >10^6
Microbe count, 20 sheets laid on imitation vomit ([5]; Day 7 at 25° C.): >10^6
Microbe count, 30 sheets laid on imitation vomit ([5]; Day 7 at 25° C.): >10^6
Microbe count, 1 sheet laid on imitation vomit ([6]; Day 0 at 25° C.): 2.0 × 10^2
Microbe count, 2 sheets laid on imitation vomit ([6]; Day 0 at 25° C.): <10
Microbe count, 3 sheets laid on imitation vomit ([6]; Day 0 at 25° C.): <10
Microbe count, 4 sheets laid on imitation vomit ([6]; Day 0 at 25° C.): <10
Microbe count, 5 sheets laid on imitation vomit ([6]; Day 0 at 25° C.): <10
Microbe count, 6 sheets laid on imitation vomit ([6]; Day 0 at 25° C.): <10
Microbe count, 8 sheets laid on imitation vomit ([6]; Day 0 at 25° C.): <10
Microbe count, 10 sheets laid on imitation vomit ([6]; Day 0 at 25° C.): <10
Microbe count, 20 sheets laid on imitation vomit ([6]; Day 0 at 25° C.): <10
Microbe count, 30 sheets laid on imitation vomit ([6]; Day 0 at 25° C.): <10
Microbe count, 1 sheet laid on imitation vomit ([6]; Day 7 at 25° C.): >10^6
Microbe count, 2 sheets laid on imitation vomit ([6]; Day 7 at 25° C.): >10^6
Microbe count, 3 sheets laid on imitation vomit ([6]; Day 7 at 25° C.): >10^6
Microbe count, 4 sheets laid on imitation vomit ([6]; Day 7 at 25° C.): >10^6
Microbe count, 5 sheets laid on imitation vomit ([6]; Day 7 at 25° C.): >10^6
Microbe count, 6 sheets laid on imitation vomit ([6]; Day 7 at 25° C.): >10^6
Microbe count, 8 sheets laid on imitation vomit ([6]; Day 7 at 25° C.): 1.1 × 10^4
Microbe count, 10 sheets laid on imitation vomit ([6]; Day 7 at 25° C.): 7.1 × 10^2
Microbe count, 20 sheets laid on imitation vomit ([6]; Day 7 at 25° C.): <10
Microbe count, 30 sheets laid on imitation vomit ([6]; Day 7 at 25° C.): <10
Microbe count, 1 sheet laid on imitation vomit ([7]; Day 0 at 25° C.): <10
Microbe count, 2 sheets laid on imitation vomit ([7]; Day 0 at 25° C.): <10
Microbe count, 3 sheets laid on imitation vomit ([7]; Day 0 at 25° C.): <10
Microbe count, 4 sheets laid on imitation vomit ([7]; Day 0 at 25° C.): <10
Microbe count, 5 sheets laid on imitation vomit ([7]; Day 0 at 25° C.): <10
Microbe count, 6 sheets laid on imitation vomit ([7]; Day 0 at 25° C.): <10
Microbe count, 8 sheets laid on imitation vomit ([7]; Day 0 at 25° C.): <10
Microbe count, 10 sheets laid on imitation vomit ([7]; Day 0 at 25° C.): <10
Microbe count, 20 sheets laid on imitation vomit ([7]; Day 0 at 25° C.): <10
Microbe count, 30 sheets laid on imitation vomit ([7]; Day 0 at 25° C.): <10
Microbe count, 1 sheet laid on imitation vomit ([7]; Day 7 at 25° C.): >10^6
Microbe count, 2 sheets laid on imitation vomit ([7]; Day 7 at 25° C.): >10^6
Microbe count, 3 sheets laid on imitation vomit ([7]; Day 7 at 25° C.): >10^6
Microbe count, 4 sheets laid on imitation vomit ([7]; Day 7 at 25° C.): >10^6
Microbe count, 5 sheets laid on imitation vomit ([7]; Day 7 at 25° C.): >10^6
Microbe count, 6 sheets laid on imitation vomit ([7]; Day 7 at 25° C.): >10^6
Microbe count, 8 sheets laid on imitation vomit ([7]; Day 7 at 25° C.): >10^6
Microbe count, 10 sheets laid on imitation vomit ([7]; Day 7 at 25° C.): >10^6
Microbe count, 20 sheets laid on imitation vomit ([7]; Day 7 at 25° C.): >10^6
Microbe count, 30 sheets laid on imitation vomit ([7]; Day 7 at 25° C.): >10^6
sterilization/removal of pathogenic microbes in stacked treatment sheets [8]: able to sterilize pathogenic microbes from the first sheet
